Test results published in article PMC3929521, “Optimization (Central Composite Design) and Validation of HPLC Method for Investigation of Emtricitabine Loaded Poly(lactic-co-glycolic acid) Nanoparticles: In Vitro Drug Release and In Vivo Pharmacokinetic Studies” (The Scientific World Journal, 2014).
Read-outs that look alike come from different tables or passages of the source.

What was measured:
in vivo = assay: in vivo
Procedure: The pharmacokinetic studies were carried out in healthy male Wistar rats (250–300 g). The animals were fasted overnight before dosing with free access to water. The animals were acclimatized to laboratory conditions over the week before experiments and fed with standard rat diet, under controlled conditions of a 12 : 12 h light : dark cycle, with a temperature of 22 ± 3°C and relative humidity of 50 ± 5% RH. The experimental protocol was approved by the Institutional Animal Ethical Committee (AACP/IAEC/Jun-2012-02).
Eighteen rats were randomly separated into three groups (six animals in each group).
At regular time intervals 0, 1, 2, 4, 6, 8, 12, and every 24 h, for 10 days, samples of blood were withdrawn (100 μL) from the retroorbital plexus by microcapillary technique under light ether anesthesia into heparinized microcentrifuge tubes (50 units heparin/mL of blood).
The supernatant was decanted into a China dish and evaporated to dryness at room temperature. This was further reconstituted with 100 μL of mobile phase and vortexed for 30 s and 20 μL was injected into an HPLC system. Emtricitabine was detected at a wavelength of 280 nm. The proficiency of nanoparticulate formulations was appraised by administering pure drug orally and measuring the blood levels at 0, 0.25, 0.5, 1.5, 2, 3, 4, 6, 8, 12 and 24 h.

[1] = rat plasma, n = 6
Procedure: Bench-top stability was investigated to ensure that emtricitabine was not degraded in plasma samples at room temperature for a time period to cover the sample preparation. It was measured by divulging the QC samples to ambient laboratory conditions for 10 h. Freeze-thaw stability was measured over three cycles. Because of the need for occasional delayed injection of extraction samples, the stability of reconstituted samples was assessed at ambient temperature for 24 h. The freezer storage stability of emtricitabine in rat plasma at −20°C was evaluated by assaying QC samples at the beginning and one week later. All stability QC samples were analyzed in six replicates.

[2] = male Wistar rats, oral, 15 mg/kg/rat, n = 6, mean ± SD, listed as Free emtricitabine, 15 mg/kg
[3] = male, Wistar, rat, plasma, po, 15 mg/kg
[4] = Bench-top stability, ambient temperature (25°C) for 4 h, spiked 0.1 μg/mL
[5] = Bench-top stability, ambient temperature (25°C) for 4 h, spiked 0.8 μg/mL
[6] = Bench-top stability, ambient temperature (25°C) for 4 h, spiked 2.0 μg/mL
[7] = Freeze-thaw stability, after three freeze-thaw cycles, spiked 0.1 μg/mL
[8] = Freeze-thaw stability, after three freeze-thaw cycles, spiked 0.8 μg/mL
[9] = Freeze-thaw stability, after three freeze-thaw cycles, spiked 2.0 μg/mL
[10] = One-week stability, stored at −16°C, spiked 0.1 μg/mL
[11] = One-week stability, stored at −16°C, spiked 0.8 μg/mL
[12] = One-week stability, stored at −16°C, spiked 2.0 μg/mL

Compound: Nc1nc(=O)n([C@@H]2CS[C@H](CO)O2)cc1F [Emtricitabine, 5-fluoro-1-(2R, 5S)-[2-(hydroxymethyl)-1,3-oxathiolan-5-yl]cytosine]
- AUMC0–∞ (in vivo; male Wistar rats, oral, 15 mg/kg/rat, n = 6, mean ± SD): 178.32 ± 15.095 µg/mL∗h
- AUC0–∞ (in vivo; [2]): 14.835 ± 0.450 µg/mL∗h
- t max (in vivo; [2]): 2.0 ± 0.006 h
- Cmax (in vivo; [3]): 1700 ± 17 ng/mL
- MRT (in vivo; [3]): 12 ± 0.67 h
- half-life (in vivo; [3]): 9.37 ± 0.58 h
- k el (in vivo; [3]): 2.06e-05 s⁻¹
- AUC(0-inf) (in vivo; male, Wistar, rat, plasma, po, 15 mg/kg, AUC0–∞, male Wistar rats, 15 mg/kg/rat, n = 6, mean ± SD): 14800 ng·h/mL
- t max (in vivo; male, Wistar, rat, plasma, po, 15 mg/kg, t max, male Wistar rats, 15 mg/kg/rat, n = 6, mean ± SD): ≤ 2 h
- AUC(0-inf) (in vivo; male, Wistar, rat, plasma, po, 15 mg/kg/rat, AUC0−∞ (Figure 6), Wistar rats, mean ± SEM): 14800 ± 184 ng·h/mL
- Accuracy [1, 4]: 96.0%
- Mean determined concentration [1, 4]: 0.096 µg/mL
- Accuracy [1, 5]: 97.87%
- Mean determined concentration [1, 5]: 0.783 µg/mL
- Accuracy [1, 6]: 97.20%
- Mean determined concentration [1, 6]: 1.944 µg/mL
- Accuracy [1, 7]: 99.00%
- Mean determined concentration [1, 7]: 0.099 µg/mL
- Accuracy [1, 8]: 99.37%
- Mean determined concentration [1, 8]: 0.795 µg/mL
- Accuracy [1, 9]: 99.75%
- Mean determined concentration [1, 9]: 1.995 µg/mL
- Accuracy [1, 10]: 93.00%
- Mean determined concentration [1, 10]: 0.093 µg/mL
- Accuracy [1, 11]: 93.25%
- Mean determined concentration [1, 11]: 0.746 µg/mL
- Accuracy [1, 12]: 95.55%
- Mean determined concentration [1, 12]: 1.911 µg/mL
